Assay [1] deals with HKB-11 lymphoma cells. Description: Flow cytometry apoptosis profile, Annexin V-CF Blue / 7-AAD. In kind it is cell-based, human. Conditions: 24 h. The protocol: The HKB-11 cells were cultured in T75 cell culture flasks with an initial density of 1 × 10^6 cells per 10 mL at 37 °C in the presence of 5% CO2 for 24 h. The following day, the cell culture media was removed from each flask and replaced with fresh FBS-containing media. […] An FBS-containing medium was used as the untreated control. The flasks were then incubated at 37 °C with 5% CO2 for 24 h. Then, the cell culture media from each flask were collected. Subsequently, trypsin (0.25% w/v) was applied to the flasks for 4 min at 37 °C. The trypsin reaction was neutralised with an equal volume of 10% FBS serum-containing media, and the cells were combined with the previously collected media. The cell pellets were obtained by centrifuging at 500× g for 5 min at room temperature (RT). This procedure was repeated by suspending the cell pellets in 1 mL of PBS each time. The collected cell pellets from each treatment were immediately suspended in 500 μL of 1× binding buffer and gently mixed by pipetting. Annexin V-CF Blue (5 μL) and 7-AAD (5 μL) staining solutions were added to 100 μL of the cell suspension. The stained cells were incubated for 15 min in the dark at RT, after which 400 μL of a 1× assay buffer was added to each cell suspension. Subsequently, the cells were examined using a flow cytometer (Novocyte 3000, ACEA Biosciences Inc., San Diego, CA, USA), and data analysis and processing were performed using NovoExpress software (version 1.5.0, ACEA Biosciences Inc., CA, USA). In the initial step, the cells were gated on forward and side scatter modes to exclude cell aggregates and debris near the origin. The cells were then gated on dot plots, where Annexin V-CF in Pacific Blue was plotted against 7-AAD fluorescence in PerCP. Quadrants were positioned relative to the untreated control, indicating live cells ([…] and −7-AAD) appearing in the lower-left quadrant, early apoptotic cells (+Annexin V and −7-AAD) in the lower-right quadrant, late apoptotic cells (+Annexin V and +7-AAD) in the upper-right quadrant, and necrotic cells (−Annexin V and +7-AAD) in the upper-left quadrant. For statistical analyses and visualisation, the percentage data of cells in each quadrant after different treatments (n = 3) were exported to GraphPad Prism software (version 9.0, San Diego, CA, USA).
In general terms: A flow cytometer gives signals particle by particle.

Assay [2] concerns HKB-11 human lymphoma cells. Description: Alamar Blue antiproliferative assay, HKB-11. In kind it is cell-based. Conditions: HKB-11, 72 h, single postbiotics, GraphPad Prism nonlinear regression, read-out: IC50 (concentration required to inhibit 50% of cell growth). As for the experimental part: The cell viability of the HKB-11, Hs 313.T, and HS-5 cells after treatment with different concentrations of the seven different postbiotics, including SCFA salts (magnesium acetate, sodium propionate, and sodium butyrate), UA and UB, purine nucleoside (inosine), and bacteriocin (N), was determined using the Alamar Blue assay as per the method described earlier. Briefly, 100 μL of cells was cultured in 96-well plates at a 3 × 10^5 cells/mL seeding density. After 24 h, the cells were treated with 16,000 µM of each postbiotic except for the urolithins, which were applied at 500 µM using a 1:2 serial dilution across a 10-point dose–response curve, followed by a 72 h incubation. A positive control using doxorubicin was prepared at a concentration of 4 μM, and an untreated control with 0.1% DMSO was added to every plate. At the end of the incubation period, the culture media were removed, and 100 μL of a 0.1 mg/mL Alamar Blue solution (resazurin, prepared as a stock solution at 1 mg/mL in freshly made PBS, followed by a 1:10 dilution with serum-free media) was added to each well. The fluorescence levels were assessed using a microplate spectrophotometer (BMG CLARIOstar, Mornington, VIC, Australia) with an excitation wavelength of 555 nm and emission measurement at 595 nm. The compounds were tested in triplicate, with the untreated control taken as 100% cell viability.
Data were collected and managed using MS Office Excel and GraphPad Prism for statistical analyses and visualisation. Data collection and analyses were carried out in triplicate, and the outcomes were presented as the mean ± standard deviation. Statistical significance between the mean values was determined at p ≤ 0.05 employing a two-way ANOVA. Tukey and Dunnett’s tests were utilised within GraphPad Prism software to perform nonlinear regression and multiple comparisons. Furthermore, GraphPad Prism software computed the IC50 value (representing the drug concentration required to achieve a 50% cell growth inhibition). The experimental groups in the proteomics study were compared statistically using unpaired t-tests, assuming equal variances. Candidate proteins were selected based on an absolute log2 fold change ≥ 0.58 and a Q-value ≤ 0.05. Enrichment analysis was subsequently conducted using Ingenuity Pathway Analysis (IPA), applying a significance threshold of adjusted Q ≤ 0.05 to identify functionally enriched pathways, focusing on those with an absolute z-score of ≥1.
(In general: The colour change of resazurin is a common sign of viable cells or microbes.)

“Nisin (ITSISLCTPGCKTGALMGCNMKTATCHCSIHVSK; Lantibiotic nisin-A; UniProt P13068 24-57, looked up) [34-amino-acid lantibiotic peptide (bacteriocin) produced by Lactococcus lactis; purchased]”: the Apoptosis induction entry in assay [1] (HKB-11, 3200 µM, p ≤ 0.0001, compared with 8000 μM) is reported as “induced apoptosis with greater potency”. The “Cell death relative to untreated controls” value in assay [1] (HKB-11, 8000 μM, p ≤ 0.01, apoptotic and necrotic populations elevated) was “significantly increased cell death”. In addition, the IC50 in assay [2] was 1470 µM.
For the compound `O=c1oc2cc(O)ccc2c2ccccc12` [UB, Urolithin B], the “Apoptosis induction compared to the untreated control” value in assay [1] (HKB-11, 500 µM, p ≤ 0.0001) was “greater apoptotic induction”. Also, the IC50 in assay [2] came out at 87.6 µM.

The record behind these values is article PMC12295306, “Gut Microbial Postbiotics as Potential Therapeutics for Lymphoma: Proteomics Insights of the Synergistic Effects of Nisin and Urolithin B Against Human Lymphoma Cells” (International Journal of Molecular Sciences, 2025).
